Test results as given in US9458118B2, “Sodium channel modulators for the treatment of pain and diabetes” (CHROMOCELL CORPORATION, priority 2013, dated 2016).

System: rat
Assay: Formalin test (pain behaviors)
Assay type: in vivo
Details: 150 μL of 1 or 2% w/v solution, topical route

O=C(O)CCNCCCc1cc(Cl)ccc1Oc1cc(F)c(S(=O)(=O)Nc2ncns2)cc1Cl [Compound 12, 3-((3-(2-(4-(N-(1,2,4-thiadiazol-5-yl)sulfamoyl)-2-chloro-5-fluorophenoxy)-5-chlorophenyl)propyl)amino)propanoic acid]
reduction in pain response (formalin assay phase 2) relative to vehicle control: 29-43% | reduction in pain response (formalin assay, phase 1) relative to vehicle control: 13-24%
